According to US20250313535A1, “ALPHA 4 BETA 7 INTEGRIN MODULATORS AND USES THEREOF” (DICE MOLECULES SV, INC., priority 2022, published 2025):

Legend:
α4β7 integrin = α4β7 integrin (Homo sapiens (Human), UniProt P13612+P26010); test: Integrin Adhesion Assay: Protocol 4 (MAdCAM-coated plate, RPMI-8866 cells with stable LOF mutation of the ITGB1 gene); assay type: cell-based; settings: Protocol 4; RPMI-8866 cells with LOF mutation of ITGB1, MAdCAM; read-out: Mean IC50 α4β7 KO
Summary of the method: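 RPMI-8866 cells with CRISPR/Cas9 knockout of ITGB1 (2×10^6/mL) were added to MAdCAM-coated wells with compound (1% DMSO) in HEPES/NaCl buffer with 1 mM MnCl2, 0.1 mM CaCl2 and 1% BSA, then incubated 1 h at 37 °C. After four washes, adherent cells were quantified by CellTiter-Glo luminescence. Percent inhibition versus DMSO and control compound was fitted to 4-parameter curves.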

α4β1 integrin = α4β1 integrin (Homo sapiens (Human), UniProt P05556+P13612); test: Integrin Adhesion Assay: Protocol 5 (VCAM-coated plate, RPMI-8866 cells with stable LOF mutation of the ITGB7 gene); assay type: cell-based; settings: Protocol 5; RPMI-8866 cells with LOF mutation of ITGB7, VCAM; read-out: Mean IC50 α4β1 KO
α4β1 integrin, sequence (P13612 34-1032): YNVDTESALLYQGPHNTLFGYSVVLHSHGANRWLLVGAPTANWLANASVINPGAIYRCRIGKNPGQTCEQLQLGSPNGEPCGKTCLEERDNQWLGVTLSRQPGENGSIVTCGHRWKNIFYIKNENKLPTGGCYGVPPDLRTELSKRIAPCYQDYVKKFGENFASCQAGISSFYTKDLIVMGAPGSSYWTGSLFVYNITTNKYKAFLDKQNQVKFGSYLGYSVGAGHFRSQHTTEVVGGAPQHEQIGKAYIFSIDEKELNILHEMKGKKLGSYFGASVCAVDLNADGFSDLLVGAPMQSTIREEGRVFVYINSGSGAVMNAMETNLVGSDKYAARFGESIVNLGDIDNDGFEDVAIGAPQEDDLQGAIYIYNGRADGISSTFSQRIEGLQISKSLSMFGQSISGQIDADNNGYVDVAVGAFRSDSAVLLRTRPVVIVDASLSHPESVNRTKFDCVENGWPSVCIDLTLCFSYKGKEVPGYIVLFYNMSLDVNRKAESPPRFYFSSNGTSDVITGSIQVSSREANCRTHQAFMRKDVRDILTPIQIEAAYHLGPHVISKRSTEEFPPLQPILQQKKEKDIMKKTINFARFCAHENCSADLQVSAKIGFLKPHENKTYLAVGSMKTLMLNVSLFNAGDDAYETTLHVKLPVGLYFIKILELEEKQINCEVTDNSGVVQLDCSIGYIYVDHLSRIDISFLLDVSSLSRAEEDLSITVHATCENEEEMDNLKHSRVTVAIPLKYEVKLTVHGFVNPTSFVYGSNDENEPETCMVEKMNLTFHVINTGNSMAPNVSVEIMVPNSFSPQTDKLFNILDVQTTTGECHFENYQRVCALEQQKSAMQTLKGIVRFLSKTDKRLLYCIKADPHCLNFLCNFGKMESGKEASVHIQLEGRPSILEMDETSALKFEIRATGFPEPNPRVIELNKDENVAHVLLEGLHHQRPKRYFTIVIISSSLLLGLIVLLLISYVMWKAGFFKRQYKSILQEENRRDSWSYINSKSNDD
α4β1 integrin, sequence (P05556 21-798): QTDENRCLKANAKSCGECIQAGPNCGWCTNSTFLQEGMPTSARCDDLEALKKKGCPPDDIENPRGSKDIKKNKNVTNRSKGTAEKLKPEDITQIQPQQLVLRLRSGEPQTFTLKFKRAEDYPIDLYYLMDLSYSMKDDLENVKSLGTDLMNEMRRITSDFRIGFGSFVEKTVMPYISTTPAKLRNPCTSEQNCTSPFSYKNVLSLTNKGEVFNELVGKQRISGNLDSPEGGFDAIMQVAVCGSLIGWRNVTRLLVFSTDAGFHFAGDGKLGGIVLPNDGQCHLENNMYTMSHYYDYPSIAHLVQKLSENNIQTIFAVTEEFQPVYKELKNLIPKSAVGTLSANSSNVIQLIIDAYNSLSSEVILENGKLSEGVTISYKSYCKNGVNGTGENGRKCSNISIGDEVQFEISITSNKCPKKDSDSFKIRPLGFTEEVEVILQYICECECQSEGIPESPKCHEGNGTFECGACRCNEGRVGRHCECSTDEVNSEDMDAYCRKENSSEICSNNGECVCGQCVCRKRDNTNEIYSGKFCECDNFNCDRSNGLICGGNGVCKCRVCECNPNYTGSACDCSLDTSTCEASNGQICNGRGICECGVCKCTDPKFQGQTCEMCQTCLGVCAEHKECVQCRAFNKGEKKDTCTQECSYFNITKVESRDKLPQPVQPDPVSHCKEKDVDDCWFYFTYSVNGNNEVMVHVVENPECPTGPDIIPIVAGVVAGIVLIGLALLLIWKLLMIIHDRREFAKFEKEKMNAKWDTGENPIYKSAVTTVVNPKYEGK
Summary of the method: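 RPMI-8866 B cells with CRISPR/Cas9 ITGB7 knockout (clonal, verified by flow cytometry) adhered to VCAM-coated wells for 1 h at 37° C in HEPES/NaCl buffer with 1 mM MnCl2, 0.1 mM CaCl2, 1% BSA, 1% DMSO. Bound cells quantified by CellTiter-Glo luminescence after washing; % inhibition versus DMSO and control, 4-parameter fit.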

α4β7 integrin, sequence (P13612 34-1032): as the sequence (P13612 34-1032) above
α4β7 integrin, sequence (P26010 20-798): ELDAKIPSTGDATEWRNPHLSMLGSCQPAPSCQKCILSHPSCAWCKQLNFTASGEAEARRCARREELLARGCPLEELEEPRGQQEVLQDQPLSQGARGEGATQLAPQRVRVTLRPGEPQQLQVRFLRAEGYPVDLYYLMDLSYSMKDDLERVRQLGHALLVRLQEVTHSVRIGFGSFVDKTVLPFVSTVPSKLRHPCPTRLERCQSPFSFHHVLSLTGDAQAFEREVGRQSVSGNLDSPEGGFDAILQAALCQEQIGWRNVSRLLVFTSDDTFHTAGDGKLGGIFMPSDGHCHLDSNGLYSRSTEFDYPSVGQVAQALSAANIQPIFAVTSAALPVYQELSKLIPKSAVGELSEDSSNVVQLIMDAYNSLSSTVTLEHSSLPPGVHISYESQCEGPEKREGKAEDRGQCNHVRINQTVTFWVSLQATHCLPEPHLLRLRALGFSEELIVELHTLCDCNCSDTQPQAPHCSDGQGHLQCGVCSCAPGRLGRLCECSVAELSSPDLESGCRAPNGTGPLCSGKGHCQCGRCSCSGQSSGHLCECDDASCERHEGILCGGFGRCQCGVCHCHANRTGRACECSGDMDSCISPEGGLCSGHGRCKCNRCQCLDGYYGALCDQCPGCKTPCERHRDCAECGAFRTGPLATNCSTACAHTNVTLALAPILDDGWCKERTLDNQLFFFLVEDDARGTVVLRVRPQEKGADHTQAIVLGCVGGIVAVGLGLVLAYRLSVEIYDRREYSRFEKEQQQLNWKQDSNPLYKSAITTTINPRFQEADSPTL

Row | SMILES | IC50 (α4β7 integrin) [nM] | IC50 (α4β1 integrin) [nM]
1 | O=C(O)[C@H](Cc1cccc2c(-c3ccc(CN4CCCC(F)C4)c4ccncc34)cccc12)NC(=O)C1(C(F)(F)F)CCN(CC(F)(F)F)CC1 (stereo partly drawn) [Compound 989] | 10 to 100 | > 1000
2 | CN1CCC(Cc2ccc3ccnc(-c4cccc5c(C[C@H](NC(=O)C6(C(F)(F)F)CCN(CC(F)(F)F)CC6)C(=O)O)cccc45)c3c2)CC1 [Compound 990] | < 10 | > 1000
3 | O=C(O)[C@H](Cc1cccc2c(-c3cccc4cc(CN5CCCCC5)ncc34)cccc12)NC(=O)C1(C(F)(F)F)CCN(CC(F)(F)F)CC1 [Compound 991] | 100 to 1000 | > 1000
4 | COc1cc2c(c(OC)c1-c1cccc3c(C[C@H](NC(=O)C4(C(F)(F)F)CCN(CC(F)(F)F)CC4)C(=O)O)cccc13)CN(C1CCCCC1)CC2 [Compound 993] | < 10 | 100 to 1000
5 | COC(=O)[C@H](Cc1cccc2c(-c3nc(CN4CCCCC4)cc4ccncc34)cccc12)NC(=O)C1(C(F)(F)F)CCN(CC(F)(F)F)CC1 [Compound 994] | 10 to 100 | > 1000
6 | COc1ccc2c(c1-c1cccc3c(C[C@H](NC(=O)c4c(C)cccc4F)C(=O)O)cccc13)CN(CC(F)F)CC2 [Compound 995] | 10 to 100 | 100 to 1000
7 | COc1cc(CN2CCC(C(F)(F)F)CC2)cnc1-c1cccc2c(C[C@H](NC(=O)c3c(C)cccc3F)C(=O)O)cccc12 [Compound 996] | 10 to 100 | > 1000
8 | COc1ccc2c(c1-c1cccc3c(C[C@H](NC(=O)c4c(C)cccc4F)C(=O)O)cccc13)CCN(CC(F)(F)F)C2 [Compound 997] | 10 to 100 | > 1000
9 | COc1ccc2c(c1-c1cccc3c(C[C@H](NC(=O)c4c(C)cccc4F)C(=O)O)cccc13)CCN(C)C2 [Compound 998] | < 10 | 100 to 1000
10 | COc1cccc(OCCN2CCCCC2)c1-c1cccc2c(C[C@H](NC(=O)c3c(C)cccc3F)C(=O)O)cccc12 [Compound 999] | < 10 | 100 to 1000
11 | CCOCc1cc(CN2CCCCC2)c(-c2cccc3c(C[C@H](NC(=O)c4c(C)cccc4F)C(=O)O)cccc23)c(OC)c1 [Compound 1000] | < 10 | 100 to 1000
12 | COc1ccc(CCN2CCCCC2)cc1-c1cccc2c(C[C@H](NC(=O)c3c(C)cccc3F)C(=O)O)cccc12 [Compound 1001] | 10 to 100 | > 1000
13 | Cc1cccc(F)c1C(=O)N[C@@H](Cc1cccc2c(-c3cccc4c3OCC4)cccc12)C(=O)O [Compound 1002] | 100 to 1000 | > 1000
14 | COc1ccc2c(c1-c1cccc3c(C[C@H](NC(=O)c4c(C)cccc4F)C(=O)O)cccc13)CCN(CC(F)F)C2 [Compound 1003] | 10 to 100 | > 1000
15 | COc1ccc(CCN2CCCCC2)c(C(F)(F)F)c1-c1cccc2c(C[C@H](NC(=O)c3c(C)cccc3F)C(=O)O)cccc12 [Compound 1004] | < 10 | 100 to 1000
16 | COc1cc(CN2CCC(C)(C)CC2)cnc1-c1cccc2c(C[C@H](NC(=O)c3c(C)cccc3F)C(=O)O)cccc12 [Compound 1005] | 10 to 100 | > 1000
17 | COc1cc2c(cc1-c1cccc3c(C[C@H](NC(=O)c4c(C)cccc4F)C(=O)O)cccc13)CN(CC(F)F)CC2 [Compound 1006] | 10 to 100 | 100 to 1000
18 | CCOCc1cc(OC)c(-c2cccc3c(C[C@H](NC(=O)c4c(C)cccc4F)C(=O)O)cccc23)cc1CN1CCCCC1 [Compound 1008] | < 10 | 100 to 1000
19 | COc1cc(C(F)(F)F)cc(CN2CCCCC2)c1-c1cccc2c(C[C@H](NC(=O)c3c(C)cccc3F)C(=O)O)cccc12 [Compound 1009] | < 10 | > 1000
20 | COc1c(CN(C)C)ccc(Cl)c1-c1cccc2c(C[C@H](NC(=O)c3c(C)cccc3F)C(=O)O)cccc12 [Compound 1011] | < 10 | > 1000

Row | SMILES | IC50 (α4β7 integrin) [nM] | IC50 (α4β1 integrin) [nM]
21 | COc1ccc(CN2CCCC(F)C2)c(OC)c1-c1cccc2c(C[C@H](NC(=O)c3c(C)cccc3F)C(=O)O)cccc12 (stereo partly drawn) [Compound 1012] | < 10 | > 1000
22 | COc1c(CN2CCCCC2)ccc(Cl)c1-c1cccc2c(C[C@H](NC(=O)c3c(C)cccc3F)C(=O)O)cccc12 [Compound 1013] | < 10 | 100 to 1000
23 | COc1cccc(CN2CCCCC2)c1-c1cccc2c(C[C@H](NC(=O)c3c(C)cccc3F)C(=O)O)cccc12 [Compound 1014] | < 10 | 100 to 1000
24 | COc1cccc(CN2CCCC(F)C2)c1-c1cccc2c(C[C@H](NC(=O)c3c(C)cccc3F)C(=O)O)cccc12 (stereo partly drawn) [Compound 1015] | < 10 | 100 to 1000
25 | COc1ccc(CN2CCCCC2)nc1-c1cccc2c(C[C@H](NC(=O)c3c(C)cccc3F)C(=O)O)cccc12 [Compound 1016] | < 10 | 100 to 1000
26 | COc1cccc(CN2CCC(C)(C)CC2)c1-c1cccc2c(C[C@H](NC(=O)c3c(C)cccc3F)C(=O)O)cccc12 [Compound 1017] | < 10 | 100 to 1000
27 | COc1cc(CN2CCCCC2)cnc1-c1cccc2c(C[C@H](NC(=O)c3c(C)cccc3F)C(=O)O)cccc12 [Compound 1018] | < 10 | > 1000
28 | COc1cc(CN2CCCCC2)cc(OC)c1-c1cccc2c(C[C@H](NC(=O)c3c(C)cccc3F)C(=O)O)cccc12 [Compound 1019] | < 10 | 100 to 1000
29 | COc1c(CN2CCCCC2)ccnc1-c1cccc2c(C[C@H](NC(=O)c3c(C)cccc3F)C(=O)O)cccc12 [Compound 1020] | 10 to 100 | > 1000
30 | Cc1cccc(F)c1C(=O)N[C@@H](Cc1cccc2c(-c3ncccc3CN3CCCCC3)cccc12)C(=O)O [Compound 1021] | 10 to 100 | > 1000
31 | COc1cc(CN2CCCCC2)cc(C(F)(F)F)c1-c1cccc2c(C[C@H](NC(=O)c3c(C)cccc3F)C(=O)O)cccc12 [Compound 1023] | < 10 | 100 to 1000
32 | COc1cccc(CN2CCC(F)CC2)c1-c1cccc2c(C[C@H](NC(=O)c3c(C)cccc3F)C(=O)O)cccc12 [Compound 1024] | 10 to 100 | > 1000
33 | COc1cc(C(F)(F)F)c(CN2CCCCC2)cc1-c1cccc2c(C[C@H](NC(=O)c3c(C)cccc3F)C(=O)O)cccc12 [Compound 1025] | 10 to 100 | > 1000
34 | COc1cccc(CN2CCC(C(F)(F)F)CC2)c1-c1cccc2c(C[C@H](NC(=O)c3c(C)cccc3F)C(=O)O)cccc12 [Compound 1026] | 10 to 100 | > 1000
35 | COc1cccc(CN2CCC(C(C)(C)C)CC2)c1-c1cccc2c(C[C@H](NC(=O)c3c(C)cccc3F)C(=O)O)cccc12 [Compound 1027] | < 10 | 100 to 1000
36 | COc1cccc(CN2CC3CCC(C2)O3)c1-c1cccc2c(C[C@H](NC(=O)c3c(C)cccc3F)C(=O)O)cccc12 [Compound 1028] | 10 to 100 | > 1000
37 | CC(C)c1cccc(F)c1C(=O)N[C@@H](Cc1cccc2c(-c3c(C(F)(F)F)c4cc(CN5CCCCC5)ccc4n(C)c3=O)cccc12)C(=O)O [Compound 1029] | < 10 | 10 to 100
38 | Cc1cccc(F)c1C(=O)N[C@@H](Cc1cccc2c(-c3c(C(F)(F)F)c4cc(CN5CCCCC5)ccc4n(C)c3=O)cccc12)C(=O)O [Compound 1030] | < 10 | 100 to 1000
39 | COc1cccc(CCN2CCC(C)(C)CC2)c1-c1cccc2c(C[C@H](NC(=O)c3c(C)cccc3F)C(=O)O)cccc12 [Compound 1033] | < 10 | 100 to 1000
